Measurements published in patent US6924302B2, “Substituted triazole diamine derivatives as kinase inhibitors” (Ortho McNeil Pharmaceutical, Inc., priority 2000, dated 2005).
Like-named read-outs stand apart in the source and are kept apart here.

Experiments:
[1] = biological target: T1, Casein Kinase 1 (CK1 delta isoform) (Rattus norvegicus, UniProt Q06486); test: Kinase Selectivity Assay Casein Kinase 1; format: biochemical; conditions: Tables 2a-2k, read-out: Caseine Kinase 1 IC50
T1 construct: a truncation at amino acid 318 of the C-terminal portion of the rat CK1 delta isoform; purchased New England Biolabs 6030; host or cells: E. coli
T1 sequence (Q06486 1-317): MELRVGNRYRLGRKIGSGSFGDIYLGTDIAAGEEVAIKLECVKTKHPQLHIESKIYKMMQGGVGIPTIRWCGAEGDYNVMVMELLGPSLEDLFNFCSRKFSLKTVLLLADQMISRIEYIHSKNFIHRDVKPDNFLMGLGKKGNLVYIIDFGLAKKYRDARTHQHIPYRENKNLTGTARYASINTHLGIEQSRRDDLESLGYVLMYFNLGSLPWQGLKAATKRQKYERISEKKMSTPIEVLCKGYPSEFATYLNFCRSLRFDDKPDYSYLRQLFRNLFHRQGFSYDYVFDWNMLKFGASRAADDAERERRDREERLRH
In short: (§1)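 Radiometric Flashplate format: ^33P-γ-ATP transfer to immobilized biotinylated peptide, 1 h, 30° C, 1% DMSO final, enzyme in 50 mM Tris-HCl pH=8.0 + 0.1% BSA. Duplicate 8-point dilution, 100 uM down to 10 pM. IC50 from % inhibition of plate max signal versus log conc.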

[2] = biological target: T2, Glycogen Synthase Kinase-3 (beta isoform) (Oryctolagus cuniculus, UniProt G1T8E2); test: Kinase Selectivity Assay Glycogen Synthase Kinase-3; format: biochemical, rabbit; conditions: Kinase Selectivity, Tables 2a-2k; read-out: GSK-3 IC50
T2 construct: purchased New England Biolabs 6040; host or cells: E. coli
T2 sequence (G1T8E2 1-432): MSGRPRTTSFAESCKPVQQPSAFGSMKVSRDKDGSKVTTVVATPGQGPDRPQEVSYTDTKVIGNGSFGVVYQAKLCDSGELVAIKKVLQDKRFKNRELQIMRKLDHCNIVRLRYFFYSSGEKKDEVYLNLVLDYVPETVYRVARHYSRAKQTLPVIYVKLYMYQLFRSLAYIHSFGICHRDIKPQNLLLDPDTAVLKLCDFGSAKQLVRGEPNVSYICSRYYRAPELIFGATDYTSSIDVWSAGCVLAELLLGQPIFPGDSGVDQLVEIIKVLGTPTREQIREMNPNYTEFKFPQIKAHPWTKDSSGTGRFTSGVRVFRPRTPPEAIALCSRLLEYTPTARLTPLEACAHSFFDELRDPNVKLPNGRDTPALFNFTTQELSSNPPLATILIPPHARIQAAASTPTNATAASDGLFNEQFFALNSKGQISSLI
In short: as §1

[3] = test system: PC-3 prostate adenocarcinoma; test: Inhibition of Cell Proliferation (14C-thymidine incorporation), PC-3; format: cell-based; conditions: Homo sapiens, PC-3 cell line
Description: (§2) The ability of a test compound to inhibit the proliferation of cell growth was determined by measuring incorporation of ^14C-labelled thymidine into newly synthesized DNA within the cells. This method was used on cell lines derived from carcinomas originating from several tissues such as HeLa cervical adenocarcinoma (American Type Culture Collection (ATCC), Virginia, Cat. #CCL-2), A375 malignant melanoma (ATCC CRL-1619), SK-OV-3 ovarian adenocarcinoma (ATCC HTB-77) HCT-116 colon carcinoma (CCL-247), PC-3 prostate adenocarcinoma (ATCC CRL-1435), and MDA-MB-231 (Xenogen Corp.) In this way the effect of a compound on cell growth of cells with many different phenotypes can be determined. Cells were trypsinized and counted and 3000-8000 cells were added to each well of a 96-well CytoStar tissue culture treated scintillating microplate (Amersham #RPNQ0160) in complete medium in a volume of 100 μl. Cells were incubated for 24 hours in complete medium at 37° C. in an atmosphere containing 5% CO2. Next, 1 μl of test compound in 100% DMSO was added to the wells of the plate. DMSO only was added to control wells. Cells were incubated for 24 more hours in complete medium at 37° C. in an atmosphere containing 5% CO2. Methyl ^14C-thymidine 56 mCi/mmol (NEN #NEC568 or Amersham #CFA532) was diluted in complete medium and 0.2 uCi/well was added to each well of the CytoStar plate in a volume of 20 μl. The plate was incubated for 24 hours at 37° C. plus 5% CO2 in drug plus ^14C-thymidine. The contents of the plate were discarded into a ^14C radioactive waste container by inverting the plate and the plate was washed twice with 200 μl PBS. 200 μl of PBS is added to each well. The top of the plate was sealed with a transparent plate sealer and a white plate backing sealer (Packard #6005199) was applied to the bottom of the plate. The degree of methyl ^14C-thymidine incorporation was quantified on a Packard Top Count.

[4] = biological target: T3, Protein Kinase A (Bos taurus, UniProt P00517); test: Kinase Selectivity Assay Protein Kinase A; format: biochemical, bovine; conditions: Kinase Selectivity, Tables 2a-2k; read-out: PKA IC50
T3 construct: purified from bovine heart; purchased Upstate Biotech 14-114; host or cells: bovine heart
In short: as §1

[5] = test system: HCT-116 colon carcinoma; test: Inhibition of Cell Proliferation (14C-thymidine incorporation), HCT-116; format: cell-based; conditions: Homo sapiens, HCT-116 cell line
Description: as §2

[6] = biological target: T4, Calmodulin Kinase (calmodulin-dependent protein kinase 2) (Rattus norvegicus, UniProt P11275); test: Kinase Selectivity Assay Calmodulin Kinase; format: biochemical; conditions: Kinase Selectivity, Tables 2a-2k; read-out: Calmodulin Kinase 2 IC50
T4 construct: a truncated version of the alpha subunit of the rat protein; purchased New England Biolabs 6060; host or cells: insect cells
In short: as §1

[7] = biological target: T5, HER2 (human epidermal growth factor receptor-2) (Homo sapiens, UniProt P04626); test: Kinase Selectivity Assay HER2; format: biochemical
T5 construct: begins at amino acid 676 followed by the remainder of the HER2 cytoplasmic domain; polyhistidine (N)
T5 sequence (P04626 676-1255 limits assumed): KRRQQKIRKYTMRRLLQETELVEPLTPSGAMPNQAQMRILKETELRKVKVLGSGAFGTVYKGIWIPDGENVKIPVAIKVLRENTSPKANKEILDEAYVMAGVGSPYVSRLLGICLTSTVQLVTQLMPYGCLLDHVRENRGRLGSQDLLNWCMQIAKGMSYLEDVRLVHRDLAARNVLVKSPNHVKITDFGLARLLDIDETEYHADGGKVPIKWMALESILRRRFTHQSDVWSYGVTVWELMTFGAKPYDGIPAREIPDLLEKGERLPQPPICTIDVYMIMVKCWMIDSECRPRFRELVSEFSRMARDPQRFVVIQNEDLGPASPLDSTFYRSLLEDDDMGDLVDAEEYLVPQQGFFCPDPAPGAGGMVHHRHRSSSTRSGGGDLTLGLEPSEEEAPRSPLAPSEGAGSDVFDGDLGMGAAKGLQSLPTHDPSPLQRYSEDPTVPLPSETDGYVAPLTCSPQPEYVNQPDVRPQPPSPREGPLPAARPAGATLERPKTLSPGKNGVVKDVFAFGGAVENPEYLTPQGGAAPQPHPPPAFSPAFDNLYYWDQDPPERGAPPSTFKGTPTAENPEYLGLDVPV
In short: as §1

[8] = test system: A375 malignant melanoma; test: Inhibition of Cell Proliferation (14C-thymidine incorporation), A375; format: cell-based; conditions: Homo sapiens, A-375, A375 cell line
Description: as §2

[9] = Kinase Selectivity, Tables 2a-2k, read-out: HER2 Kinase IC50

Structure (SMILES) | IC50 [1] | IC50 [2] | IC50 [3] | IC50 [4] | IC50 [5] | IC50 [6] | IC50 [7, 9] | IC50 ([7]; Table 1, read-out: HER2 IC50) | IC50 [8]
Cc1nc(C)c(C(=O)n2nc(Nc3ccc(S(N)(=O)=O)cc3)nc2N)s1 [Cpd 34, 4-[[5-amino-1-[(2,4-dimethyl-5-thiazolyl)carbonyl]-1H-1,2,4-triazol-3-yl]amino]-benzenesulfonamide] | 182 nM | 15 nM | 626 nM | > 100000 nM | 996 nM | > 100000 nM | – | – | –
Nc1nc(Nc2ccc(S(N)(=O)=O)cc2)nn1C(=O)c1sccc1Br [Cpd 35, 4-[[5-amino-1-[(3-bromo-2-thienyl)carbonyl]-1H-1,2,4-triazol-3-yl]amino]-benzenesulfonamide] | – | – | 231 nM | – | 172 nM | – | – | – | –
Nc1nc(Nc2ccc(S(N)(=O)=O)cc2)nn1C(=O)C1CCCC1 [Cpd 38, 4-[[5-amino-1-(cyclopentylcarbonyl)-1H-1,2,4-triazol-3-yl]amino]-benzenesulfonamide] | 6100 nM | 122 nM | 2750 nM | > 100000 nM | 2270 nM | > 100000 nM | – | – | –
Nc1nc(Nc2ccc(S(N)(=O)=O)cc2)nn1C(=O)C1CCCCC1 [Cpd 39, 4-[[5-amino-1-(cyclohexylcarbonyl)-1H-1,2,4-triazol-3-yl]amino]-benzenesulfonamide] | 4100 nM | 127 nM | 625 nM | > 100000 nM | 1410 nM | > 100000 nM | – | – | –
Cc1ccccc1C(=O)n1nc(Nc2ccc(S(N)(=O)=O)cc2)nc1N [Cpd 57, 4-[[5-amino-1-(2-methylbenzoyl)-1H-1,2,4-triazol-3-yl]amino]-benzenesulfonamide] | 14000 nM | 98 nM | – | > 100000 nM | 95 nM | > 100000 nM | 1320 nM | 1320 nM | 113 nM
CN1CCN(c2ccc(Nc3nc(N)n(C(=O)c4c(F)cccc4F)n3)cc2)CC1 [Cpd 71, 1-(2,6-difluorobenzoyl)-N^3-[4-(4-methyl-1-piperazinyl)phenyl]-1H-1,2,4-triazole-3,5-diamine] | > 100000 nM | 1720 nM | 25 nM | > 100000 nM | – | 60900 nM | 1300 nM | 1300 nM | –
CNS(=O)(=O)c1ccc(Nc2nc(N)n(C(=O)c3c(F)cccc3F)n2)cc1 [Cpd 80, 4-[[5-amino-1-(2,6-difluorobenzoyl)-1H-1,2,4-triazol-3-yl]amino]-N-methyl-benzenesulfonamide] | – | – | 272 nM | – | – | – | – | 1120 nM | –
CNS(=O)(=O)c1ccc(Nc2nc(N)n(C(=O)c3sccc3C)n2)cc1 [Cpd 82, 4-[[5-amino-1-[(3-methyl-2-thienyl)carbonyl]-1H-1,2,4-triazol-3-yl]amino]-N-methyl-benzenesulfonamide] | 354 nM | 25 nM | 15 nM | > 100000 nM | – | > 100000 nM | – | – | –
CCc1ccc(C(=O)n2nc(Nc3ccc(S(=O)(=O)NC)cc3)nc2N)s1 [Cpd 84, 4-[[5-amino-1-[(5-ethyl-2-thienyl)carbonyl]-1H-1,2,4-triazol-3-yl]amino]-N-methyl-benzenesulfonamide] | 188 nM | 19 nM | 23 nM | 2200 nM | – | > 100000 nM | – | – | –
CCc1ccc(C(=O)n2nc(Nc3ccc(S(=O)(=O)NCCN(C)C)cc3)nc2N)s1 [Cpd 103, 4-[[5-amino-1-[(5-ethyl-2-thienyl)carbonyl]-1H-1,2,4-triazol-3-yl]amino]-N-[2-(dimethylamino)ethyl]-benzenesulfonamide] | 322 nM | 13 nM | – | > 100000 nM | 75 nM | > 100000 nM | 228 nM | 228 nM | 115 nM
Cc1ccsc1C(=O)n1nc(Nc2ccc(S(=O)(=O)NCCN(C)C)cc2)nc1N [Cpd 104, 4-[[5-amino-1-[(3-methyl-2-thienyl)carbonyl]-1H-1,2,4-triazol-3-yl]amino]-N-[2-(dimethylamino)ethyl]-benzenesulfonamide] | 624 nM | 20 nM | – | > 100000 nM | 41 nM | > 10000 nM | – | – | 108 nM
Cc1cc(C)c(C(=O)n2nc(Nc3ccc(NS(C)(=O)=O)cc3)nc2N)s1 [Cpd 108, N-[4-[[5-amino-1-[(3,5-dimethyl-2-thienyl)carbonyl]-1H-1,2,4-triazol-3-5 yl]amino]phenyl]-methanesulfonamide] | 816 nM | 23 nM | – | – | – | > 10000 nM | 42 nM | 41.7 nM | –
Cc1ccsc1C(=O)n1nc(Nc2ccc(N3CCNC3=O)cc2)nc1N [Cpd 113, 1-[4-[[5-amino-1-[(3-methyl-2-thienyl)carbonyl]-1H-1,2,4-triazol-3-yl]amino]phenyl]-2-imidazolidinone] | 318 nM | 71 nM | – | > 100000 nM | 281 nM | > 10000 nM | 68 nM | 68 nM | –
Cc1ccsc1C(=O)n1nc(Nc2ccc(N3CCCS3(=O)=O)cc2)nc1N [Cpd 116, N^3-[4-(1,1-dioxido-2-isothiazolidinyl)phenyl]-1-[(3-methyl-2-thienyl)carbonyl]-1H-1,2,4-triazole-3,5-diamine] | > 1000 nM | 62 nM | – | > 100000 nM | 349 nM | > 100000 nM | 131 nM | 131 nM | 639 nM
Nc1nc(Nc2ccc(N3CCCS3(=O)=O)cc2)nn1C(=O)c1c(F)cccc1F [Cpd 117] | 13500 nM | 1040 nM | – | > 100000 nM | 1120 nM | > 100000 nM | – | – | 2190 nM
Nc1nc(Nc2ccc(S(=O)(=O)Nc3ccccn3)cc2)nn1C(=O)c1c(F)cccc1F [Cpd 118, 4-[[5-amino-1-(2,6-difluorobenzoyl)-1H-1,2,4-triazol-3-yl]amino]-N-(2-pyridinyl)-benzenesulfonamide] | > 100000 nM | 159 nM | – | > 100000 nM | 1170 nM | > 100000 nM | > 10000 nM | > 10000 nM | 1620 nM
Cc1cc(C)c(C(=O)n2nc(Nc3ccc(S(=O)(=O)Nc4ccccn4)cc3)nc2N)s1 [Cpd 120] | > 10000 nM | 18 nM | – | > 100000 nM | 334 nM | > 100000 nM | – | – | 259 nM
Cc1ccc(F)c(C(=O)n2nc(N)nc2Nc2ccc(S(N)(=O)=O)cc2)c1F [Cpd 123, 4-[[3-amino-1-(2,6-difluoro-3-methylbenzoyl)-1H-1,2,4-triazol-5-yl]amino]-benzenesulfonamide] | > 100000 nM | 3010 nM | – | > 100000 nM | 4140 nM | > 100000 nM | > 100000 nM | ~100000 nM | > 10000 nM
